Assay results from patent US20260327211A1, “MODULATORS OF A POTASSIUM CHANNEL AND OF TRPV1 CHANNEL AND USES THEREOF” (Bsense Bio Therapeutics Ltd., priority 2023, published 2026).

Legend:
rats [1] = experiment: Hot plate (53° C.); format: in vivo, rat; details: 10 mg/kg PO, 2 and 4 hours post-dose
Method: Hot Plate: Animals were placed on hot plate analgesia meter (IITC Life Science Inc., CA, USA) set to 53±1° C., and the time until the first escape response was observed was recorded. A response was considered when the animals lifted or licked their leg or performed kicking behavior.

humans = details: Rowbotham 2011; cited from earlier work
rats [2] = experiment: Core body temperature; format: in vivo, rat; details: 10 mg/kg
Method: Core Body Temperature: Following two days of habituation to the measurement method, the body temperature was measured on study day for baseline values and then again post-dosing in the time points indicated in the figure. Body temperature was measured using a probe gently inserted into the animal anus using a corn oil lubricant (C8267, Sigma-Aldrich, IL).

[3] = system: sodium and calcium channel; details: cited from earlier work
hKv7.2/3 = biological target: T1, hKv7.2/3 (Homo sapiens, UniProt O43525+O43526); experiment: Kv7.2/7.3 HCS, FLIPR potassium (thallium) assay, CHO/hKv7.2/3; format: cell-based; details: read-out: Kv7.2/3 maximal opening vs. control
T1 construct: host or cells: CHO
Method in brief: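 CHO cells stably expressing human Kv7.2/3, loaded with Tl+ indicator dye 1.5 h at room temperature in HBSS/HEPES with compound (0.2% DMSO). Channels activated by injection of 1 mM Tl2SO4 plus 5 mM K2SO4; fluorescence increase reflects Tl+ influx. EC50 from sigmoidal fit constrained to minimum 1, maximum ~3.6.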

hKv7.4 = biological target: T2, hKv7.4 (Homo sapiens, UniProt P56696); details: positive control; read-out: Known IC50, Kv7.4; cited from earlier work
T2 construct: expressed in transfected cells; host or cells: CHO

hKv7.3/5 = biological target: T3, hKv7.3/5 (Homo sapiens, UniProt O43525+Q9NR82); details: positive control; read-out: Known IC50, Kv7.3/5; cited from earlier work
T3 construct: expressed in transfected cells; host or cells: CHO

[4] = system: KCNQ2-5-type potassium channels; details: cited from earlier work
HepG2 cells = details: positive control; read-out: Toxicity IC50; cited from earlier work

T2 sequence (P56696 whole entry): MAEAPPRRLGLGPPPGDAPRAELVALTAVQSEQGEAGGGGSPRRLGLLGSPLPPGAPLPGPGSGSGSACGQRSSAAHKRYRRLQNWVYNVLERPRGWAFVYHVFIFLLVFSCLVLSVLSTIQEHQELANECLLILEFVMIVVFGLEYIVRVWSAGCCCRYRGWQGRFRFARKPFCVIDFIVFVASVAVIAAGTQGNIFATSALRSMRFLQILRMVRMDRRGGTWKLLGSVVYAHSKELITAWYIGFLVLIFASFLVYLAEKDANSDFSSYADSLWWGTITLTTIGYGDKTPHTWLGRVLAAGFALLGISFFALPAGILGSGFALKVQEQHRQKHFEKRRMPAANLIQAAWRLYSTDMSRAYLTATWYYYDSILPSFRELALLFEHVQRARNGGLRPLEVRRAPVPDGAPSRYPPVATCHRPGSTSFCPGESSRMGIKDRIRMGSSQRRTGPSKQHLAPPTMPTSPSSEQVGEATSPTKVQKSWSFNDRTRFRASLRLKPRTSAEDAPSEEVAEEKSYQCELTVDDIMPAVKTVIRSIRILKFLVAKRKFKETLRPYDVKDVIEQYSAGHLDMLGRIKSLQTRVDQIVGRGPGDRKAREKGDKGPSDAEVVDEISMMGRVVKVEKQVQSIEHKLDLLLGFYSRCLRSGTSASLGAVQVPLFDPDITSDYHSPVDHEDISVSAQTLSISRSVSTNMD
T3 sequence (O43525 whole entry): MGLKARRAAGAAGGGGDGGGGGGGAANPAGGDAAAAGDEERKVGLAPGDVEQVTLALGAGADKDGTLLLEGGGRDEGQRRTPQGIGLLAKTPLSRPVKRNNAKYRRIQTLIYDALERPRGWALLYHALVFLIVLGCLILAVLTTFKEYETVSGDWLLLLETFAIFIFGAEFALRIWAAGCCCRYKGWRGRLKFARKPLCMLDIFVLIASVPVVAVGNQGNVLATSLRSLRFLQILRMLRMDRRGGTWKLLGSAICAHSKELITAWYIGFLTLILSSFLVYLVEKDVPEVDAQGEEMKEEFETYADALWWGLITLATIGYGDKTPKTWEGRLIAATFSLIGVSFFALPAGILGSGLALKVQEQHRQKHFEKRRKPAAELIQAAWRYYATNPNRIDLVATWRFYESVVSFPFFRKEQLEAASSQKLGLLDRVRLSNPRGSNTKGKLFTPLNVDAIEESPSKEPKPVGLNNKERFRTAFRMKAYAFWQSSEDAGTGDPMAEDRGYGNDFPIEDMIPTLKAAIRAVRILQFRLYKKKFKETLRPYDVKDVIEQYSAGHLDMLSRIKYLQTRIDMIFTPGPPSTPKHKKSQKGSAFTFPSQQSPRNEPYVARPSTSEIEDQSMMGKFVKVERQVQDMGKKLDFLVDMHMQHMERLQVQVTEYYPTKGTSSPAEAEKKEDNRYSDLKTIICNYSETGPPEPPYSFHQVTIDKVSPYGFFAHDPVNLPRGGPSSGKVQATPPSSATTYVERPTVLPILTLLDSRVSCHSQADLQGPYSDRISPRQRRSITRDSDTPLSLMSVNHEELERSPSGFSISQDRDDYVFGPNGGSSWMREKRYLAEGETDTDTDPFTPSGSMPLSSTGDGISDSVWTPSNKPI
T3 sequence (Q9NR82 whole entry): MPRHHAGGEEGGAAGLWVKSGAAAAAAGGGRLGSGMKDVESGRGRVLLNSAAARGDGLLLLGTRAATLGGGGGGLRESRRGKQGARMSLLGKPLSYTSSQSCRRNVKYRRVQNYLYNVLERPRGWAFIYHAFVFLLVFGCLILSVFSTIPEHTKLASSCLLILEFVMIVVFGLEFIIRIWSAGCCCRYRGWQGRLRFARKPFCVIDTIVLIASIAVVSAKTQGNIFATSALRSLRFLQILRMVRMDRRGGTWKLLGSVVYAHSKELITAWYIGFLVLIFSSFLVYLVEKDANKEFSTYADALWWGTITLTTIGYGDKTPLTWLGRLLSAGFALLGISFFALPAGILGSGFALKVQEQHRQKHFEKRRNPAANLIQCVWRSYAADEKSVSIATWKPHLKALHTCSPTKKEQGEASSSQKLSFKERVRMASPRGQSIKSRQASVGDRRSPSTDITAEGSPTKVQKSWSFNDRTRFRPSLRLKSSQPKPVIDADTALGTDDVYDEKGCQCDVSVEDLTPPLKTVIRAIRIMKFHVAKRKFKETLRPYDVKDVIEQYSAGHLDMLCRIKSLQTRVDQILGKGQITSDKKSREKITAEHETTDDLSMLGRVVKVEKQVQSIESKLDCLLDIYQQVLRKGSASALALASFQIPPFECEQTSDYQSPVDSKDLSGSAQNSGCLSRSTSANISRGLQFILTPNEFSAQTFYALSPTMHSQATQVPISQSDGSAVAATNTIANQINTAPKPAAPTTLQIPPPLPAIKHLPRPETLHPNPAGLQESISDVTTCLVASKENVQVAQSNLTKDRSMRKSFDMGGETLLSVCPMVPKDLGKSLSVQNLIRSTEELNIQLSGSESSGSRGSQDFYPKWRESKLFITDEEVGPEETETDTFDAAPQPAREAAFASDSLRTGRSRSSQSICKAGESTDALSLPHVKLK
T1 sequence (O43525 whole entry): as the sequence (O43525 whole entry) above
T1 sequence (O43526 whole entry): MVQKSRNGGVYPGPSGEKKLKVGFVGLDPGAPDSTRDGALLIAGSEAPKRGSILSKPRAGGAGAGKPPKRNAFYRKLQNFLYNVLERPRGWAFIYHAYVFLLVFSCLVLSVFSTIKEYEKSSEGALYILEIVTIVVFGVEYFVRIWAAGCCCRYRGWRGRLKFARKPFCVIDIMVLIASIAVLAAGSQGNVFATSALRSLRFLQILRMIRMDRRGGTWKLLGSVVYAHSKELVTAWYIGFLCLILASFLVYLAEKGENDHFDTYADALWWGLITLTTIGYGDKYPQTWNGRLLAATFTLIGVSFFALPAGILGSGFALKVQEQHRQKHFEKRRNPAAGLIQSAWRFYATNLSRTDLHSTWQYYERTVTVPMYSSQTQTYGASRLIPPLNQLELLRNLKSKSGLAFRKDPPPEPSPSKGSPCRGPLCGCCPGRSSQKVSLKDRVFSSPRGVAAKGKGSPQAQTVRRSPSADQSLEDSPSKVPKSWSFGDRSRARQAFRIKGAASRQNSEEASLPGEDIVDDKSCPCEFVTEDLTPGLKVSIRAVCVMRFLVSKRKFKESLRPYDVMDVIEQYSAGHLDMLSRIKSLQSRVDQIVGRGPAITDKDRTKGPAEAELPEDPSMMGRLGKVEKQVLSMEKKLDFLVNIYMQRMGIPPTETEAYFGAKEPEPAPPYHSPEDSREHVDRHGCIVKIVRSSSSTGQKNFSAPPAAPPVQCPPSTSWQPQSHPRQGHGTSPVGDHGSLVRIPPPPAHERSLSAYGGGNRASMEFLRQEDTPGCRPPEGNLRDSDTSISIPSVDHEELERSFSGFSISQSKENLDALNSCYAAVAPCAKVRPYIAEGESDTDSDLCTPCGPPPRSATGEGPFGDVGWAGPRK

**Q.** What does the source list for `CC(C)(C)c1ccc2c(c1)CC[C@H]2NC(=O)Nc1cccc2[nH]ncc12` [ABT102, reference compound]?
**A.** Hot plate escape latency (rats [1]): statistically significant increase in hot plate escape latency; Heat pain threshold, clinical (humans): increase heat pain threshold; Increase of core body temperature vs vehicle (rats [2]; 6 hours post-dose): 1.3 °C; Increase of core body temperature vs vehicle (rats [2]; 10 hours post-dose): 0.8 °C

**Q.** For `CCOC(=O)Nc1ccc(NCc2ccc(F)cc2)cc1N` [Retigabine, N-(2-amino-4-(4-fluorobenzylamino)-phenyl)carbamic acid ethyl ester], which “Other effects” value [3] is on record?
**A.** sodium and calcium channel blocking activity

**Q.** And the Emax (hKv7.2/3)?
**A.** 220%

**Q.** And the IC50 (hKv7.4)?
**A.** 1500 to 5000 nM

**Q.** And the IC50 (hKv7.3/5)?
**A.** 1500 to 5000 nM

**Q.** What about the “Channel selectivity” value [4] of the same compound?
**A.** highly selective for KCNQ2-5-type potassium channels

**Q.** For `NS(=O)(=O)OC[C@H]1C[C@@H](Nc2ccnc3cc(-c4cccc(SC(F)(F)F)c4)nn23)[C@H](O)[C@@H]1O` [TAK243], which IC50 (HepG2 cells) is on record?
**A.** ~200 nM
